{"source": "patent US20020137929A1", "about": "“1 - (3-heterocyclylphenyl) isothiourea, -isourea, -guanidine and -amidine herbicidal agents” (Intellectual Property Department, BASF Aktiengesellschaft, priority 1998, published 2002)", "key": {"[1]": {"tested_on": "ABUTH (Velvetleaf)", "assay": "Postemergence herbicidal evaluation", "format": "in vivo, Abutilon theophrasti", "details": "postemergence", "how_it_was_run": "(§1)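 Visual 0-9 injury score (stand, vigor, malformation, size, chlorosis, appearance vs untreated) taken four to five weeks post-spray, averaged across repeat tests. Test plants about two weeks old; foliar spray of acetone/water (1:1) with 0.5% surfactant delivering ~0.0156-0.500 kg active/ha.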"}, "[2]": {"tested_on": "CHEAL (Lambsquarters, Common)", "assay": "Postemergence herbicidal evaluation", "format": "in vivo, Chenopodium album", "details": "postemergence", "how_it_was_run": "as §1"}, "[3]": {"tested_on": "SETVI (Foxtail, Green)", "assay": "Postemergence herbicidal evaluation", "format": "in vivo, Setaria viridis", "details": "postemergence", "how_it_was_run": "as §1"}, "[4]": {"tested_on": "GLXMAW (Soybean, Williams)", "assay": "Postemergence herbicidal evaluation", "format": "in vivo, Glycine max, (L.) Merr. cv Williams", "details": "postemergence", "how_it_was_run": "as §1"}, "[5]": {"tested_on": "ORYSAT (Rice, Tebonnet)", "assay": "Postemergence herbicidal evaluation", "format": "in vivo, Oryza sativa, (L.) Tebonnet", "details": "postemergence", "how_it_was_run": "as §1"}, "[6]": {"tested_on": "TRZAWR (Wheat, Winter, cv Riband)", "assay": "Postemergence herbicidal evaluation", "format": "in vivo, Triticum aestivum", "details": "postemergence", "how_it_was_run": "as §1"}, "[7]": {"tested_on": "ZEAMX (Corn, Field)", "assay": "Postemergence herbicidal evaluation", "format": "in vivo, Zea mays", "details": "postemergence", "how_it_was_run": "as §1"}, "[8]": {"tested_on": "AMBEL (Ragweed, Common)", "assay": "Preemergence herbicidal evaluation", "format": "in vivo, Ambrosia artemisifolia", "details": "rated 4-5 weeks after treatment", "how_it_was_run": "(§2)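 In this greenhouse assay, monocot and dicot seeds are planted in soil and treated prior to emergence with an aqueous acetone spray (about 0.0156-0.500 kg/ha). Plants are assessed visually against control on a 0-9 scale after 4-5 weeks.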"}, "[9]": {"tested_on": "GALAP (Galium)", "assay": "Preemergence herbicidal evaluation", "format": "in vivo, Galium aparine", "details": "rated 4-5 weeks after treatment", "how_it_was_run": "as §2"}, "[10]": {"tested_on": "SETVI (Foxtail, Green)", "assay": "Preemergence herbicidal evaluation", "format": "in vivo, Setaria viridis", "details": "rated 4-5 weeks after treatment", "how_it_was_run": "as §2"}, "[11]": {"tested_on": "CYPIR (Rice Flatsedge)", "assay": "Preemergence weed control under flooded paddy conditions", "format": "in vivo, Cyperus iria", "details": "rated 3-4 weeks after treatment", "how_it_was_run": "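Flooded-pot preemergence screen with silt loam and seeds in the upper 0.5 cm. Dose about 0.0313 to 0.500 kg/ha, delivered into flood water; visual 0-9 score after 3 to 4 weeks.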"}, "[12]": {"tested_on": "ECHORC (Watergrass (Calif.))", "assay": "Postemergence weed control under flooded paddy conditions", "format": "in vivo, Echinochloa oryzoides", "details": "postemergence weeds, 3-4 weeks after treatment", "how_it_was_run": "(§3)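 Weeds 3 to 5 cm tall and rice seedlings at the 1.5 to 2.5 leaf stage were flooded, with water held 1.5 to 3 cm above the soil. Compounds in 50/50 v/v aqueous/acetone went into the flood water at about 0.0313 to 0.500 kg/ha. Visual 0-9 ratings versus control were made 3 to 4 weeks later.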"}, "[13]": {"tested_on": "CYPSE (Flatsedge)", "assay": "Postemergence weed control under flooded paddy conditions", "format": "in vivo, Cyperus serotinus", "details": "postemergence weeds, 3-4 weeks after treatment", "how_it_was_run": "as §3"}, "[14]": {"tested_on": "SAGPY (Arrowhead (Pygmaea))", "assay": "Postemergence weed control under flooded paddy conditions", "format": "in vivo, Sagittaria pygmaea", "details": "postemergence weeds, 3-4 weeks after treatment", "how_it_was_run": "as §3"}}, "data": [{"smiles": "COC(=O)CN1C(=O)CSC1=Nc1cc(-n2c(=O)cc(C(F)(F)F)n(C)c2=O)c(F)cc1Cl", "note": "[Compound 17, Methyl 2-{{2-chloro-5-[3,6-dihydro-3-methyl-2,6-dioxo-4-(trifluoromethyl)-1(2H)-pyrimidinyl]-4-fluorophenyl}imino}-4-oxo-3-thiazolidineacetate]", "values": [{"measurement": "ABUTH herbicidal rating", "setting": "[1]; rate 0.0156 kg/ha", "result": 9.0}, {"measurement": "ABUTH herbicidal rating", "setting": "[1]; rate 0.0313 kg/ha", "result": 9.0}, {"measurement": "ABUTH herbicidal rating", "setting": "[1]; rate 0.0625 kg/ha", "result": 9.0}, {"measurement": "ABUTH herbicidal rating", "setting": "[1]; rate 0.1250 kg/ha", "result": 9.0}, {"measurement": "CHEAL herbicidal rating", "setting": "[2]; rate 0.0156 kg/ha", "result": 2.5}, {"measurement": "CHEAL herbicidal rating", "setting": "[2]; rate 0.0313 kg/ha", "result": 3.0}, {"measurement": "CHEAL herbicidal rating", "setting": "[2]; rate 0.0625 kg/ha", "result": 4.0}, {"measurement": "CHEAL herbicidal rating", "setting": "[2]; rate 0.1250 kg/ha", "result": 8.0}, {"measurement": "SETVI herbicidal rating", "setting": "[3]; rate 0.0156 kg/ha", "result": 2.0}, {"measurement": "SETVI herbicidal rating", "setting": "[3]; rate 0.0313 kg/ha", "result": 2.5}, {"measurement": "SETVI herbicidal rating", "setting": "[3]; rate 0.0625 kg/ha", "result": 4.0}, {"measurement": "SETVI herbicidal rating", "setting": "[3]; rate 0.1250 kg/ha", "result": 5.5}, {"measurement": "GLXMAW herbicidal rating", "setting": "[4]; rate 0.0156 kg/ha", "result": 4.3}, {"measurement": "GLXMAW herbicidal rating", "setting": "[4]; rate 0.0313 kg/ha", "result": 5.5}, {"measurement": "GLXMAW herbicidal rating", "setting": "[4]; rate 0.0625 kg/ha", "result": 5.8}, {"measurement": "GLXMAW herbicidal rating", "setting": "[4]; rate 0.1250 kg/ha", "result": 7.5}, {"measurement": "ORYSAT herbicidal rating", "setting": "[5]; rate 0.0156 kg/ha", "result": 1.8}, {"measurement": "ORYSAT herbicidal rating", "setting": "[5]; rate 0.0313 kg/ha", "result": 3.0}, {"measurement": "ORYSAT herbicidal rating", "setting": "[5]; rate 0.0625 kg/ha", "result": 3.5}, {"measurement": "ORYSAT herbicidal rating", "setting": "[5]; rate 0.1250 kg/ha", "result": 5.0}, {"measurement": "TRZAWR herbicidal rating", "setting": "[6]; rate 0.0156 kg/ha", "result": 3.3}, {"measurement": "TRZAWR herbicidal rating", "setting": "[6]; rate 0.0313 kg/ha", "result": 4.5}, {"measurement": "TRZAWR herbicidal rating", "setting": "[6]; rate 0.0625 kg/ha", "result": 5.5}, {"measurement": "TRZAWR herbicidal rating", "setting": "[6]; rate 0.1250 kg/ha", "result": 7.3}, {"measurement": "ZEAMX herbicidal rating", "setting": "[7]; rate 0.0156 kg/ha", "result": 7.0}, {"measurement": "ZEAMX herbicidal rating", "setting": "[7]; rate 0.0313 kg/ha", "result": 7.3}, {"measurement": "ZEAMX herbicidal rating", "setting": "[7]; rate 0.0625 kg/ha", "result": 7.8}, {"measurement": "ZEAMX herbicidal rating", "setting": "[7]; rate 0.1250 kg/ha", "result": 7.8}, {"measurement": "AMBEL preemergence herbicidal rating", "setting": "[8]; rate 0.0156 kg/ha", "result": 0.0}, {"measurement": "AMBEL preemergence herbicidal rating", "setting": "[8]; rate 0.0313 kg/ha", "result": 0.7}, {"measurement": "AMBEL preemergence herbicidal rating", "setting": "[8]; rate 0.0625 kg/ha", "result": 1.7}, {"measurement": "AMBEL preemergence herbicidal rating", "setting": "[8]; rate 0.1250 kg/ha", "result": 4.3}, {"measurement": "AMBEL preemergence herbicidal rating", "setting": "[8]; rate 0.2500 kg/ha", "result": 6.7}, {"measurement": "AMBEL preemergence herbicidal rating", "setting": "[8]; rate 0.5000 kg/ha", "result": 9.0}, {"measurement": "GALAP preemergence herbicidal rating", "setting": "[9]; rate 0.0156 kg/ha", "result": 0.0}, {"measurement": "GALAP preemergence herbicidal rating", "setting": "[9]; rate 0.0313 kg/ha", "result": 0.0}, {"measurement": "GALAP preemergence herbicidal rating", "setting": "[9]; rate 0.0625 kg/ha", "result": 0.0}, {"measurement": "GALAP preemergence herbicidal rating", "setting": "[9]; rate 0.1250 kg/ha", "result": 1.0}, {"measurement": "GALAP preemergence herbicidal rating", "setting": "[9]; rate 0.2500 kg/ha", "result": 9.0}, {"measurement": "GALAP preemergence herbicidal rating", "setting": "[9]; rate 0.5000 kg/ha", "result": 9.0}, {"measurement": "SETVI preemergence herbicidal rating", "setting": "[10]; rate 0.0156 kg/ha", "result": 0.5}, {"measurement": "SETVI preemergence herbicidal rating", "setting": "[10]; rate 0.0313 kg/ha", "result": 1.3}, {"measurement": "SETVI preemergence herbicidal rating", "setting": "[10]; rate 0.0625 kg/ha", "result": 2.3}, {"measurement": "SETVI preemergence herbicidal rating", "setting": "[10]; rate 0.1250 kg/ha", "result": 6.7}, {"measurement": "SETVI preemergence herbicidal rating", "setting": "[10]; rate 0.2500 kg/ha", "result": 9.0}, {"measurement": "SETVI preemergence herbicidal rating", "setting": "[10]; rate 0.5000 kg/ha", "result": 9.0}, {"measurement": "Herbicidal rating CYPIR", "setting": "[11]; 0.0313 kg/ha", "result": 0.0}, {"measurement": "Herbicidal rating CYPIR", "setting": "[11]; 0.0625 kg/ha", "result": 0.0}, {"measurement": "Herbicidal rating CYPIR", "setting": "[11]; 0.1250 kg/ha", "result": 6.0}, {"measurement": "Herbicidal rating CYPIR", "setting": "[11]; 0.2500 kg/ha", "result": 9.0}, {"measurement": "Herbicidal rating ECHORC", "setting": "[12]; rate 0.0313 kg/ha", "result": 4.0}, {"measurement": "Herbicidal rating ECHORC", "setting": "[12]; rate 0.0625 kg/ha", "result": 9.0}, {"measurement": "Herbicidal rating ECHORC", "setting": "[12]; rate 0.1250 kg/ha", "result": 9.0}, {"measurement": "Herbicidal rating ECHORC", "setting": "[12]; rate 0.2500 kg/ha", "result": 9.0}, {"measurement": "Herbicidal rating CYPSE", "setting": "[13]; rate 0.0313 kg/ha", "result": 9.0}, {"measurement": "Herbicidal rating CYPSE", "setting": "[13]; rate 0.0625 kg/ha", "result": 9.0}, {"measurement": "Herbicidal rating CYPSE", "setting": "[13]; rate 0.1250 kg/ha", "result": 9.0}, {"measurement": "Herbicidal rating CYPSE", "setting": "[13]; rate 0.2500 kg/ha", "result": 9.0}, {"measurement": "Herbicidal rating SAGPY", "setting": "[14]; rate 0.0313 kg/ha", "result": 0.0}, {"measurement": "Herbicidal rating SAGPY", "setting": "[14]; rate 0.0625 kg/ha", "result": 0.0}, {"measurement": "Herbicidal rating SAGPY", "setting": "[14]; rate 0.1250 kg/ha", "result": 4.0}, {"measurement": "Herbicidal rating SAGPY", "setting": "[14]; rate 0.2500 kg/ha", "result": 4.0}]}]}
